# Tests used:
# [1] = tested on: Human kidney cancer cell line 786-O cells; format: in vivo; conditions: 786-O subcutaneous xenograft, nude mice, ADC (1) 1 mg/kg i.v. on Day 0, belzutifan 0.3 mg/kg orally once daily, five times a week for 3 weeks
# Description: Mouse: Six-week-old female BALB/c nude mice (The Jackson Laboratory Japan, Inc.) were subjected to an experiment.
# Measurement and calculation expression: The long diameter and short diameter of each tumor were measured twice a week using electronic digital calipers (CD-15CX, Mitutoyo Corp.), and the volume of the tumor was then calculated. The following expression was used in the calculation.
# The anti-CDH6 antibody-drug conjugate (1) was diluted with ABS buffer (10 mM acetate buffer (pH 5.5), 5% sorbitol), and the dilution was intravenously administered at a dose of 10 mL/kg to the tail of each mouse. Belzutifan was suspended in 10% dimethyl sulfoxide, 40% polyethylene glycol 300, 5% Tween-80, and 45% physiological saline, and the suspension was administered orally at a dose of 10 mL/kg.
# Human kidney cancer cell line 786-O cells purchased from ATCC (American Type Culture Collection) were suspended in Matrigel Matrix, and the cell suspension was subcutaneously inoculated at a dose of 4×10^6 cells to the right flank region of each female nude mouse. […]
# Tumor growth inhibition (TGI) is calculated according to the following expression.
# Change from baseline (%) (percentage change of average tumor volume on Day 21 from an average tumor volume on Day 0 as a baseline) was calculated according to the following expression, and is shown in FIG. 15.
# [2] = biological target: T1, Topoisomerase I (Homo sapiens, UniProt P11387); conditions: Ogitani Y. et al., Clinical Cancer Research 2016; cited from earlier work
# T1 sequence (P11387 1-765): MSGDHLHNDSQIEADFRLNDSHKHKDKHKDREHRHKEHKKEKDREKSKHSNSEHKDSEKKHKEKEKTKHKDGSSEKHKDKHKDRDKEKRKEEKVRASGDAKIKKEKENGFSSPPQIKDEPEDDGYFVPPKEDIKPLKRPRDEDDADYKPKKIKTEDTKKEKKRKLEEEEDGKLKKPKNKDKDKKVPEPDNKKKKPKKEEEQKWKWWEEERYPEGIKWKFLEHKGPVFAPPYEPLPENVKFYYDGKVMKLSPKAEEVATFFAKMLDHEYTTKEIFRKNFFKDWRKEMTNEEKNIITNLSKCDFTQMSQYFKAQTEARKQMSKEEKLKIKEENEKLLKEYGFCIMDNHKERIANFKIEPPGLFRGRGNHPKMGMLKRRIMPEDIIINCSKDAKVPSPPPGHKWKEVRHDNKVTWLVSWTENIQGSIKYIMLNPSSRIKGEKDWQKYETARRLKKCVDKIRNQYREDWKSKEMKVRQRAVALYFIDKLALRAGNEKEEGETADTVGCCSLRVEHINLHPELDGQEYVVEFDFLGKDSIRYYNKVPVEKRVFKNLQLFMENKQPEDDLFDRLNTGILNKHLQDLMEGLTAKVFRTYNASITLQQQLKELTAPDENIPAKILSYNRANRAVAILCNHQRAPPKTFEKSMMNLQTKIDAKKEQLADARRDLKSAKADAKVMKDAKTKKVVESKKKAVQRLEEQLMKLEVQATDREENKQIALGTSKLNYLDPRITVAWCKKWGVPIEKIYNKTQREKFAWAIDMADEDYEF
Compound,Tumor growth inhibition (TGI) ([1]; Day 21) [%],Change from baseline (%) (percentage change of average tumor volume on Day 21 from average tumor volume on Day 0) ([1]; Day 21 vs Day 0),Topoisomerase I inhibitory effect [2]
"CS(=O)(=O)c1ccc(Oc2cc(F)cc(C#N)c2)c2c1[C@H](O)[C@H](F)[C@@H]2F [Belzutifan, belzutifan]",29,53,–
CC[C@@]1(O)C(=O)OCc2c1cc1n(c2=O)Cc2c-1nc1cc(F)c(C)c3c1c2[C@@H](NC(=O)CO)CC3 [compound (A)],–,–,confirmed to have a topoisomerase I inhibitory effect
